# Experimental data: patent US20230303712A1, “METHODS OF TREATING GLIOBLASTOMA” (Ramot at Tel-Aviv University Ltd., priority 2020, published 2023)
# What was measured:
# human microglia = assay: Flow cytometry of CD163 and CD206 expression by microglia; type: cell-based; conditions: PD-GB4 CM with rSELP, or SELPi added to PD-GB4 CM
# Protocol: (§1) Flow cytometry. For flow cytometry assays, cells were harvested using a cell scraper, and were then washed with PBS followed by additional washes with PBS supplemented with 1% BSA and 5 mM EDTA (FACS buffer). Tumor spheroids were recovered from Matrigel using Cell Recovery Solution (Corning) and washed with FACS buffer. To validate the purity of the microglia preparations, CD11b isolated cells or human microglia were incubated with TMEM119 and P2Y12-labeled antibodies for 1 h. For human TMEM119, primary antibody was unlabeled and cells were washed and incubated with secondary, Alexa 488 conjugated antibody. To assess P-Selectin and PSGL-1 expression, GB cells and microglia were seeded alone, co-cultured in a 2D petri dish, or grown as spheroids seeded in Matrigel. Cells were treated with control medium or CM for 48 h. They were then incubated with mouse anti-human P-Selectin antibody for 1 h on ice, and then were washed, and incubated with Alexa-488 labeled anti-mouse IgG binding protein for 1 h on ice. Alternatively, cells were incubated with rat anti-human PSGL antibody, and then were washed, and incubated with goat anti-rat, Alexa-488 labeled antibody for 1 h on ice. […] Fluorescence intensity was assessed using either an Attune flow cytometer (Life Technologies) or a Gallios™ flow cytometer (Beckman Coulter, USA) and the results were analyzed by Kaluza software (Beckman Coulter, USA).
# [1] = system: bone marrow derived macrophages (BMDM); assay: Flow cytometry of PSGL-1, CD206, CD38 on bone marrow derived macrophages; type: cell-based, murine
# Protocol: Primary murine bone marrow-derived macrophages (BMDM) isolation. Bone marrow cells were freshly isolated from the tibias and the femurs of 8-12 weeks old C57BL/6 mice (Envigo CRS, Israel). Bone marrow cells were extracted using 25-gauge syringe and passed through a 70 µm nylon strainer (Corning, Israel). For macrophages differentiation cells were incubated with 50 ng/ml recombinant murine GM-CSF for one week. The medium was replaced 4 days post cells isolation. Cells were tested for CD11b and F4/80 expression using flow cytometry.
# as §1
# [2] = system: murine GB cells (GL261, iAGR53, PNp53, EGFRviii-shP16); assay: 3D spheroid invasion in Matrigel, murine GB cells co-cultured with murine microglia; type: cell-based
# Protocol: Tumor spheroids. Tumor spheroids were prepared from mCherry/iRFP/GFP-labeled patient-derived, human U251 or murine GB cells (GL261, iAGR53, PNp53, EGFRviii-shP16), either alone or co-cultured with unlabeled primary human/murine microglia (4:1 ratio), using our modified hanging-drop method, as we previously described. For assessment of cell invasion, GB spheroids (4,000 cells/sphere) were embedded in Matrigel (Corning), seeded in a 96-well plate, and incubated with complete DMEM or complete DMEM supplemented with SELPi (0.5 µM). […] For FACS analysis, GB spheroids (8,000 cells/sphere) were embedded in Matrigel, seeded in a 12-well plate, and treated with complete DMEM, 0% serum microglia medium or microglia CM for 24-48 h. Cells were then recovered using Cell Recovery Solution (Corning) and further analyzed by FACS.
# PD-GB4 tumors = assay: Local (intraventricular cannula) SELPi treatment in PD-GB PDX model; type: in vivo, SCID mice
# Protocol: Tumor volume was evaluated by MRI. […] Twelve days post cell inoculation, 3 mice per group were euthanized and brain were resected and further processed for histology analysis. […] Brain cannulas (NBT) were implanted intraventricularly in the co-lateral hemisphere and the mice were treated stereotactically via the cannulas (1 µl at 0.2 µl/min flow rate) with PBS, 2 mg/kg SELPi dissolved in DMSO or vehicle (DMSO). Three weeks post cell-inoculation, the mice were euthanized, the cannulas were removed, and tumor volume was evaluated by MRI (MR solutions). Brains were resected for immunostaining.
# MRI imaging. Tumor bearing mice were imaged at the Sackler Cellular & Molecular Imaging Center (SCMIC), Tel Aviv University. Mice were anesthetized by ketamine (150 mg/kg) and xylazine (12 mg/kg) injected IP. T1 with contrast agent (Magnetol, Gd-DTPA, Soreq M.R.C. Israel Radiopharmaceuticals) and T2 weighted images were taken by 4.7T MRI - MRS 4000™ (MR solutions).
# [3] = rSELP, or SELPi added to rSELP containing medium
smiles,measurement,setting,value
"COc1ccc(C2CC(c3c(O)cc(C)oc3=O)=NCCS2)c(OC)c1 (stereo not drawn) [SELPi, 3-[7-(2,4-Dimethoxyphenyl)-2,3,6,7-tetrahydro-1,4-thiazepin-5-yl]-4-hydroxy-6-methyl-2H-pyran-2-one]",CD206 expression,human microglia,reduced CD206 expression
same,PSGL-1 expression,"[1]; rSELP and GB CM, or SELPi added to GB CM",reduced
same,CD38 expression,[1]; [3],elevated
same,CD206 expression,[1]; [3],reduced
same,invasion of GB spheroids co-cultured with murine microglia,"[2]; mesenchymal, proneural and classical lenti-induced murine GB subtypes",significantly reduced the invasion
same,"3D spheroid invasion, murine GL261",[2]; murine GL261 GB model,effect of SELPi on GB spheroids was observed
same,reduction in tumor volume (MRI),"PD-GB4 tumors; PD-GB4, 2 mg/kg SELPi intraventricular via cannula, 21 days post injection",67%
same,"tumor growth (tumor volume, MRI)","PD-GB4 tumors; PD-GB4, local SELPi treatment, day 21",delayed growth
same,CD31 density,PD-GB4 tumors; PD-GB4 tumors,reduction
same,Iba1 density,PD-GB4 tumors; PD-GB4 tumors,reduction
same,invasion of GB cells,PD-GB4 tumors; PD-GB4 tumors,reduced
same,proliferation of GB cells,PD-GB4 tumors; PD-GB4 tumors,reduced
